# US4150153A, “1-(Naphthylethyl)imidazole derivatives” (Syntex (U.S.A.) Inc., priority 1977, dated 1979)
# What was measured:
# [1] = lethalities in mice after a single intraperitoneal dose; details: mouse, in vivo, ip, single dose intraperitoneally, lethalities determined after five days, doses 1-1,000 mg/kg
# Procedure: Groups of 3 male ICR derived mice weighing 18-24 grams were given a single dose of compound intraperitoneally. The following doses were employed: 1, 3, 10, 30, 100, 300 or 1,000 mg/kg. After five days lethalities were determined.
# [2] = test system: male Hilltop ICR-derived mice; test: Maximal Electroshock Test in Mice; assay type: in vivo; details: intraperitoneally 15 minutes prior to transcorneal maximal electroshock (50 milliamps, 0.2 seconds), antagonizing tonic extension, in parentheses 95% confidence limits; for ED50: Mus musculus, ip, 0.25 h
# Procedure: Maximal Electroshock Test in Mice
# This test was performed in the standard manner, essentially as described by Swinyard et al., J. Pharm.
# Groups of 10 male Hilltop ICR-derived mice weighing 20-30 grams were dosed intraperitoneally with a solution or suspension of drug in saline 15 minutes prior to a transcorneal maximal electroshock (50 milliamps, 0.2 seconds).
SMILES,LD50 at 120 h [1] [mg/kg],ED50 [2] [mg/kg],ED50 (95% confidence limits) [2]
O=C(Cn1ccnc1)c1cccc2ccccc12 [1-(1-naphthoylmethyl)imidazole],100 to 300,~60,–
O=C(Cn1ccnc1)c1ccc2ccccc2c1 [1-(2-naphthoylmethyl)imidazole],100 to 300,23,–
"CC1CSC(Cn2ccnc2)(c2ccc3ccccc3c2)S1.Cl (stereo not drawn) [1-[2,2-(1,2-propylenedithio)-2-(2-naphthyl)ethyl]imidazole hydrochloride]",–,–,65 (55-73) mg/kg
"c1ccc2cc(C3(Cn4ccnc4)OCCCO3)ccc2c1 [1-[2,2-(1,3-propylenedioxy)-2-(2-naphthyl)ethyl]imidazole]",–,17,–
"CC1CCOC(Cn2ccnc2)(c2ccc3ccccc3c2)O1 (stereo not drawn) [1-[2,2-(1-methyl-1,3-propylenedioxy)-2-(2-naphthyl)ethyl]imidazole]",–,19,–
"CC1(C)COC(Cn2ccnc2)(c2ccc3ccccc3c2)OC1 [1-[2,2-(2,2-dimethyl-1,3-propylenedioxy)-2-(2-naphthyl)ethyl]imidazole]",–,26,–
"CCSC(Cn1ccnc1)(SCC)c1ccc2ccccc2c1 [1-[2,2-bis(ethylthio)-2-(2-naphthyl)ethyl]imidazole]",–,35,–
"CSC(Cn1ccnc1)(SC)c1ccc2ccccc2c1 [1-[2,2-bis(methylthio)-2-(2-naphthyl)ethyl]imidazole]",–,32,–
"c1ccc2c(C3(Cn4ccnc4)OCCO3)cccc2c1 [1-[2,2-ethylenedioxy-2-(1-naphthyl)ethyl]imidazole]",–,19,–
"c1ccc2cc(C3(Cn4ccnc4)OCCO3)ccc2c1 [1-[2,2-ethylenedioxy-2-(2-naphthyl)ethyl]imidazole]",100 to 300,12,–
"c1ccc2cc(C3(Cn4ccnc4)SCCS3)ccc2c1 [1-[2,2-ethylenedithio-2-(2-naphthyl)ethyl]imidazole]",–,26,–
OC(Cn1ccnc1)c1cccc2ccccc12 (stereo not drawn) [1-[2-hydroxy-2-(1-naphthyl)ethyl]imidazole],300 to 1000,37,–
OC(Cn1ccnc1)c1ccc2ccccc2c1 (stereo not drawn) [1-[2-hydroxy-2-(2-naphthyl)ethyl]imidazole],300 to 1000,74,–
